Measured values taken from patent publication US20070128217A1 (priority 2003, published 2007).

Legend:
[1] = system: antibodies in sera from SARS patients (sera 1a, 1b, 2, 6, 37, 62, London, SARS-yellow, SARS-green); format: binding, human; parameters: Binding of serum 6 to linear peptides of protein X1 of SARS-CoV Urbani / Binding of serum 37 to linear peptides of protein X1 of SARS-CoV Urbani / Binding of serum 6 to looped/cyclic peptide (PEPSCAN-ELISA) / Binding of serum 37 to looped/cyclic peptide (PEPSCAN-ELISA) / Binding of serum 37 to looped/cyclic peptides of protein X1 of SARS-CoV Urbani / Binding of serum 6 to linear peptides of protein X2 / Binding of serum 37 to linear peptides of protein X2 / Binding of serum 37 to looped/cyclic peptides of protein X2 of SARS-CoV Urbani / Binding of serum 6 to linear peptides of protein M of SARS-CoV Urbani / Binding of serum 37 to linear peptides of protein M of SARS-CoV Urbani / Binding of serum 6 to looped/cyclic peptides of protein M of SARS-CoV Urbani / Binding of serum 37 to looped/cyclic peptides of protein M of SARS-CoV Urbani / Binding of serum 6 to linear peptides of protein X3 of SARS-CoV Urbani / Binding of serum 37 to linear peptides of protein X3 of SARS-CoV Urbani / Binding of serum 37 to looped/cyclic peptides of protein X3 of SARS-CoV Urbani / Binding of serum 6 to linear peptides of protein X4 of SARS-CoV Urbani / Binding of serum 37 to linear peptides of protein X4 of SARS-CoV Urbani / Binding of serum 37 to looped/cyclic peptides of protein X4 of SARS-CoV Urbani / Binding of serum 6 to linear peptides of protein X5 of SARS-CoV Urbani / Binding of serum 37 to linear peptides of protein X5 of SARS-CoV Urbani / Binding of serum 37 to looped/cyclic peptides of protein X5 of SARS-CoV Urbani / Binding of serum 6 to linear peptides of protein N of SARS-CoV Urbani / Binding of serum 37 to linear peptides of protein N of SARS-CoV Urbani / Binding of serum 6 to linear peptide (PEPSCAN-ELISA) / Binding of serum 1a to looped/cyclic peptides of protein N of SARS-CoV Urbani / Binding of serum 1b to looped/cyclic peptides of protein N of SARS-CoV Urbani / Binding of serum 2 to looped/cyclic peptides of protein N of SARS-CoV Urbani / Binding of serum 6 to looped/cyclic peptides of protein N of SARS-CoV Urbani / Binding of serum 37 to looped/cyclic peptides of protein N of SARS-CoV Urbani / Binding of serum 62 to looped/cyclic peptides of protein N of SARS-CoV Urbani / Binding of serum London to looped/cyclic peptides of protein N of SARS-CoV Urbani / Binding of serum SARS-green to looped/cyclic peptides of protein N of SARS-CoV Urbani: unit not given here
[2] = system: control sera (pooled serum of ten healthy LUMC hospital workers; commercial negative donor pooled serum from the Dutch bloodbank); format: binding, human; parameters: Binding of Control serum LUMC to linear peptides / Binding of Control serum Blood-bank to linear peptides / Binding of Control serum LUMC to looped peptides / Binding of Control Serum Blood-Bank to Looped peptides / Binding of Control serum LUMC to linear peptides of the protein M of SARS-CoV Urbani / Binding of Control serum Blood-bank to linear peptides of the protein M of SARS-CoV Urbani / Binding of Control serum LUMC to looped peptides of the protein M of SARS-CoV Urbani / Binding of Control Serum Blood-Bank to Looped peptides of the protein M of SARS-CoV Urbani: unit not given here
[3] = system: rabbit serum obtained by immunizing a rabbit with the SARS-CoV strain Frankfurt 1; format: binding; parameters: Binding of a rabbit serum to linear peptides / Binding of a rabbit serum to looped peptides / Rabbit serum linear peptides / Rabbit serum looped peptides / Binding of a rabbit serum to linear peptides of protein N of SARS-CoV Urbani (Rabbit serum linear peptides) / Binding of a rabbit serum to looped/cyclic peptides of protein N of SARS-CoV Urbani (Rabbit serum looped peptides): unit not given here
[4] = system: recombinant human anti-SARS-CoV antibody 03-018; format: binding; parameters: Binding of antibody 03-018 to linear peptides of the N protein of SARS-CoV Urbani / Binding of antibody 03-018 to looped/cyclic peptides of the N protein of SARS-CoV Urbani: unit not given here

Row | Sequence | Binding of serum 1a to linear peptides of protein N of SARS-CoV Urbani [1] | Binding of serum 1a to looped/cyclic peptides of protein N of SARS-CoV Urbani [1] | Binding of serum 1b to linear peptides of protein N of SARS-CoV Urbani [1] | Binding of serum 1b to looped/cyclic peptides of protein N of SARS-CoV Urbani [1] | Binding of serum 2 to linear peptides of protein N of SARS-CoV Urbani [1] | Binding of serum 2 to looped/cyclic peptides of protein N of SARS-CoV Urbani [1] | Binding of serum 6 to linear peptides of protein N of SARS-CoV Urbani [1] | Binding of serum 6 to looped/cyclic peptides of protein N of SARS-CoV Urbani [1] | Binding of serum 37 to linear peptides of protein N of SARS-CoV Urbani [1] | Binding of serum 37 to looped/cyclic peptides of protein N of SARS-CoV Urbani [1] | Binding of serum 62 to linear peptides of protein N of SARS-CoV Urbani [1] | Binding of serum 62 to looped/cyclic peptides of protein N of SARS-CoV Urbani [1] | Binding of serum London to linear peptides of protein N of SARS-CoV Urbani [1] | Binding of serum London to looped/cyclic peptides of protein N of SARS-CoV Urbani [1] | Binding of serum SARS-green to looped/cyclic peptides of protein N of SARS-CoV Urbani [1] | Binding of serum SARS-yellow to looped/cyclic peptides of protein N of SARS-CoV Urbani [1] | Binding of a rabbit serum to linear peptides of protein N of SARS-CoV Urbani (Rabbit serum linear peptides) [3] | Binding of a rabbit serum to looped/cyclic peptides of protein N of SARS-CoV Urbani (Rabbit serum looped peptides) [3] | Binding of antibody 03-018 to linear peptides of the N protein of SARS-CoV Urbani [4] | Binding of antibody 03-018 to looped/cyclic peptides of the N protein of SARS-CoV Urbani [4] | also measured
1 | KMKELSPRWYFYYLG | 0.2 | 0.3 | 0.1 | 0.2 | 0.1 | 0.4 | 0.1 | 0.3 | 0.5 | 0.7 | 0.5 | 0.7 | 0.4 | 0.4 | 0.4 | 0.6 | 0.1 | 0.6 | 0.1 | 0.2 | Binding of serum SARS-green to linear peptides of protein N of SARS-CoV Urbani [1]: 0.1; Binding of serum SARS-yellow to linear peptides of protein N of SARS-CoV Urbani [1]: 0.6; Binding of Control Serum Blood-Bank to Looped peptides [2]: 0.8; Binding of Control serum Blood-bank to linear peptides [2]: 0.6; Binding of Control serum LUMC to linear peptides [2]: 0.5; Binding of Control serum LUMC to looped peptides [2]: 0.6
2 | KQRRPQGLPNNTASW | 0.2 | 0.4 | 0.1 | 0.2 | 0.2 | 0.4 | 0.1 | 0.4 | 0.7 | 0.6 | 0.6 | 0.5 | 0.4 | 0.6 | 0.3 | 0.7 | 0.1 | 0.6 | 0.1 | 0.2 | Binding of serum SARS-green to linear peptides of protein N of SARS-CoV Urbani [1]: 0.3; Binding of serum SARS-yellow to linear peptides of protein N of SARS-CoV Urbani [1]: 0.5; Binding of Control Serum Blood-Bank to Looped peptides [2]: 0.6; Binding of Control serum Blood-bank to linear peptides [2]: 0.7; Binding of Control serum LUMC to linear peptides [2]: 0.5; Binding of Control serum LUMC to looped peptides [2]: 0.6
3 | KTDEAQPLPQRQKKQ | 0.3 | 0.3 | 0.2 | 0.1 | 0.3 | 0.3 | 0.3 | 0.6 | 0.9 | 0.3 | 0.9 | 0.1 | 1.4 | 0.7 | 0.2 | 0.5 | 0.0 | 0.0 | 0.1 | 0.2 | Binding of serum SARS-green to linear peptides of protein N of SARS-CoV Urbani [1]: 0.6; Binding of serum SARS-yellow to linear peptides of protein N of SARS-CoV Urbani [1]: 1.5; Control Serum Blood-Bank Looped peptides [2]: 0.4; Control serum Blood-bank linear peptides [2]: 0.7; Control serum LUMC linear peptides [2]: 0.9; Control serum LUMC looped peptides [2]: 0.4
4 | KVSGKGQQQQGQTVT | – | 0.3 | – | 0.2 | – | 0.5 | – | 0.3 | – | 0.4 | – | 0.4 | – | 0.6 | 0.5 | 0.3 | 0.2 | 0.4 | 0.1 | 0.2 | Binding of serum 1a to linear peptide (PEPSCAN-ELISA) [1]: 0.3; Binding of serum 1b to linear peptide (PEPSCAN-ELISA) [1]: 0.1; Binding of serum 2 to linear peptide (PEPSCAN-ELISA) [1]: 0.3; Binding of serum 6 to linear peptide (PEPSCAN-ELISA) [1]: 0.2; Binding of serum 37 to linear peptide (PEPSCAN-ELISA) [1]: 0.6; Binding of serum 62 to linear peptide (PEPSCAN-ELISA) [1]: 0.6; Binding of serum London to linear peptide (PEPSCAN-ELISA) [1]: 0.5; Binding of serum SARS-green to linear peptide (PEPSCAN-ELISA) [1]: 0.6; Binding of serum SARS-yellow to linear peptide (PEPSCAN-ELISA) [1]: 0.6; Binding of Control Serum Blood-Bank to Looped peptides [2]: 0.6; Binding of Control serum Blood-bank to linear peptides [2]: 0.8; Binding of Control serum LUMC to linear peptides [2]: 0.7; Binding of Control serum LUMC to looped peptides [2]: 0.5
